Results on 1 molecule are retold here after publication PMC9301488, “Expression, Characterization, Fermentation, Immobilization, and Application of a Novel Esterase Est804 From Metagenomic Library in Pesticide Degradation” (Frontiers in Microbiology, 2022).

The test system of this assay is T1, Est804.
T1 construct: expressed in E. coli BL21(DE3); lysate supernatant called crude, His-tag purification described for SDS-PAGE
Kind of assay: release of p-nitrophenol at […] nm, Lineweaver-Burk plot. Type of assay: biochemical, soil metagenome. The conditions noted are these: free enzyme; 0.0-5.0 mM substrate; Britton-Robinson buffer pH 6.8, 40 °C (standard conditions); crude lysate supernatant mentioned, purity of the kinetic sample not clear.

Each structure is given as a SMILES string.

Take `CC(=O)Oc1ccc([N+](=O)[O-])cc1` [ρ-nitrophenyl acetate]: the Km is 613 µM.
